Laboratory results taken from patent US7208494B2, “5HT2c receptor agonists” (Hoffmann-La Roche Inc., priority 2003, dated 2007).

Legend:
5-HT2A receptor [1] = molecular target: T1, 5-HT2A receptor (Homo sapiens, UniProt P28223); assay: Binding to 5-HT2A receptor, [125I]-DOI, Method (c); design: expressed in transfected cells; host or cells: CHO cell line; conditions: CHO cell line, read-out: Ki (2A)
Experimental: (§1) The binding of compounds of formula (I) to serotonin receptors was determined in vitro by standard methods. The preparations were investigated in accordance with the assays given hereinafter.
Method (c): For the binding to the 5-HT2A receptor the 5-HT2A receptors were radiolabeled with [^125I]-DOI. The affinity of the compounds for 5-HT2A receptors in a CHO cell line was determined according to the procedure of D. J. McKenna and S. J. Peroutka, J. Neurosci., 1989, 9, 3482–90.

5-HT2C receptor [2] = molecular target: T2, 5-HT2C receptor (Homo sapiens, UniProt P28335); assay: Binding to 5-HT2C receptor, [3H]-5-HT, Method (a); design: expressed in transfected cells; host or cells: CHO cell line; conditions: CHO cell line, read-out: Ki (2C)
T2 sequence (P28335 33-458): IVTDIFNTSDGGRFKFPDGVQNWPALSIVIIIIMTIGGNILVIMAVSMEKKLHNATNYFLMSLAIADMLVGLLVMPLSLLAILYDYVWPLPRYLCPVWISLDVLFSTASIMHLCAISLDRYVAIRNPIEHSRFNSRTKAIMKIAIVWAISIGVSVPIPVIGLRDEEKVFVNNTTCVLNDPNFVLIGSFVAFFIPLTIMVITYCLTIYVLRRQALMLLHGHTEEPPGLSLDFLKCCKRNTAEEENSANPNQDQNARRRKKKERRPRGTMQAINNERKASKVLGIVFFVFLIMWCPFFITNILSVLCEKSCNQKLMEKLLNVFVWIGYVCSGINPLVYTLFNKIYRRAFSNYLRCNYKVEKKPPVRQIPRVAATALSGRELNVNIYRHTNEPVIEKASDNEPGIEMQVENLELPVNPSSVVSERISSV
Experimental: as §1
Method (a): For the binding to the 5-HT2C receptor the 5-HT2C receptors were radiolabeled with [^3H]-5-HT. The affinity of the compounds for 5-HT2C receptors in a CHO cell line was determined according to the procedure of D. Hoyer, G. Engel and H. O. Kalkman, European J. Pharmacol., 1985, 118, 13–23.

5-HT2A receptor [3] = molecular target: T1, 5-HT2A receptor; assay: Functional activity, FLIPR calcium assay, h5-HT2A; format: cell-based; design: expressed in transfected cells; host or cells: CHO cells; conditions: for EC50: CHO cells expressing human 5-HT2A, FLIPR; for h5-HT2A Rel. Eff.: relative to response of 10 μM 5-HT (defined as 100%)
Experimental: (§2) The functional activity of compounds of formula (I) was assayed using a Fluorimetric Imaging Plate reader (FLIPR). CHO cells expressing the human 5-HT2C or human 5-HT2A receptors were counted and plated into standard 96 well microtitre plates on the day before testing to give a confluent monolayer. The cells were then dye loaded with the calcium sensitive dye, Fluo-3-AM. Unincorporated dye was removed using an automated cell washer to leave a total volume of 100 μL/well of assay buffer (Hanks balanced salt solution containing 20 mM Hepes and 2.5 mM probenecid). The drug (dissolved in 50 μL of the assay buffer) was added at a rate of 70 μL/sec to each well of the FLIPR 96 well plate during fluorescence measurements. The measurements were taken at 1 sec intervals and the maximum fluorescent signal was measured (approx 10–15 secs after drug addition) and compared with the response produced by 10 μM 5-HT (defined as 100%) to which it was expressed as a percentage response (relative efficacy). Dose response curves were constructed using Graphpad Prism (Graph Software Inc.).

human 5-HT2B receptors = molecular target: T3, human 5-HT2B receptors (Homo sapiens, UniProt P41595); assay: Binding to 5-HT2B receptor, [3H]-5-HT, Method (b); conditions: human 5-HT2B in CHO cell line, read-out: Ki (2B)
T3 construct: expressed in transfected cells; host or cells: CHO cell line
Experimental: as §1
Method (b): For the binding to the 5-HT2B receptor the 5-HT2B receptors were radiolabeled with [^3H]-5-HT. The affinity of the compounds for human 5-HT2B receptors in a CHO cell line was determined according to the procedure of K. Schmuck, C. Ullmer, P. Engels and H. Lubbert, FEBS Lett., 1994, 342, 85–90.

5-HT2C receptor [4] = molecular target: T2, 5-HT2C receptor; assay: Functional activity, FLIPR calcium assay, h5-HT2C; format: cell-based; design: expressed in transfected cells; host or cells: CHO cells; conditions: for EC50: CHO cells expressing human 5-HT2C, FLIPR; for h5-HT2C Rel. Eff.: relative to response of 10 μM 5-HT (defined as 100%)
Experimental: as §2

T3 sequence (P41595 whole entry): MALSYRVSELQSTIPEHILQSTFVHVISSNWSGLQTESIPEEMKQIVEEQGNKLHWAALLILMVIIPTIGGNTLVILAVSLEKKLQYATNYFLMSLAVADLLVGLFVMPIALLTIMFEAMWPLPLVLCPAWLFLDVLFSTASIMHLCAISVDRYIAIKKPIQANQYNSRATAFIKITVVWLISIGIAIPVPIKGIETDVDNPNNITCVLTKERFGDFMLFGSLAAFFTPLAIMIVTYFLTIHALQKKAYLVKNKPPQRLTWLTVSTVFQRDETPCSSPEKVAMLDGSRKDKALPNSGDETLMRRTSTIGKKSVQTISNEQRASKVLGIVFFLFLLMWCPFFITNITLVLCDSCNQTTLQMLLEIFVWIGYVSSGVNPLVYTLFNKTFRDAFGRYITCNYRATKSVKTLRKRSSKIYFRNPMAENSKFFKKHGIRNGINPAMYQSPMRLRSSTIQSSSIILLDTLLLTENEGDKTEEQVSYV
T1 sequence (P28223 whole entry): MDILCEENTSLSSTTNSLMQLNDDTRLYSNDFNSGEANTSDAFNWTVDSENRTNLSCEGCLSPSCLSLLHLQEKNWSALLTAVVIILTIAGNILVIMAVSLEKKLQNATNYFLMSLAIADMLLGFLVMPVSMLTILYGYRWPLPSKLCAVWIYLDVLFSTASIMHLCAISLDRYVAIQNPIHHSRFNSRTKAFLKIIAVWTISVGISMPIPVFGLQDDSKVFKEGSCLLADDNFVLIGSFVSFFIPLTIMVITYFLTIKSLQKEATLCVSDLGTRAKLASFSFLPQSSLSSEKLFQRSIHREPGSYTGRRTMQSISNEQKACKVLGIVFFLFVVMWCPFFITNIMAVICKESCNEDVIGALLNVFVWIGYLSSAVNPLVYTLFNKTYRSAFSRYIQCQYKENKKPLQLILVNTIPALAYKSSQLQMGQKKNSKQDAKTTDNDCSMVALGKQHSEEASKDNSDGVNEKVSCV

**Q.** CO[C@H](C)c1nc2c(cc1Cl)C[C@@H]1CNC[C@@H](C)N21 [Example 46, (4R,9aR)-7-Chloro-6-(1-(R)-methoxy-ethyl)-4-methyl-1,2,3,4,9,9a-hexahydro-2,4a,5-triaza-fluorene] was tested. Which Ki (5-HT2A receptor [1]) did it give?
**A.** The Ki was 195 nM.

**Q.** What about the Ki (5-HT2C receptor [2]) of the same compound?
**A.** The Ki was 9 nM.

**Q.** What about the EC50 (5-HT2A receptor [3]) of the same compound?
**A.** Its EC50 is 273 nM.

**Q.** What about the “h5-HT2A Rel. Eff.” value (5-HT2A receptor [3]) of the same compound?
**A.** The value was 50%.

**Q.** What about the Ki (human 5-HT2B receptors) of the same compound?
**A.** The Ki was 84 nM.

**Q.** And the EC50 (5-HT2C receptor [4])?
**A.** Its EC50 is 13 nM.

**Q.** What about the “h5-HT2C Rel. Eff.” value (5-HT2C receptor [4]) of the same compound?
**A.** The value was 100%.

**Q.** Which results are given for Cc1c(F)cnc2c1C[C@@H]1CNC[C@@H](C)N21 [Example 80, (4R,9aR)-7-Fluoro-4,8-dimethyl-1,2,3,4,9,9a-hexahydro-2,4a,5-triaza-fluorene]?
**A.** Ki (5-HT2A receptor [1]): 86 nM; Ki (5-HT2C receptor [2]): 6 nM; EC50 (5-HT2A receptor [3]): 178 nM; h5-HT2A Rel. Eff. (5-HT2A receptor [3]): 56%; Ki (human 5-HT2B receptors): 87 nM; EC50 (5-HT2C receptor [4]): 13 nM; h5-HT2C Rel. Eff. (5-HT2C receptor [4]): 98%

**Q.** What does the source list for C[C@@H]1CNC[C@H]2Cc3cc(Cl)c(C(F)F)nc3N21 [Example 23, (4R,9aR)-7-Chloro-6-difluoromethyl-4-methyl-1,2,3,4,9,9a-hexahydro-2,4a,5-triaza-fluorene]?
**A.** Ki (5-HT2A receptor [1]): 25 nM; Ki (5-HT2C receptor [2]): 8 nM; EC50 (5-HT2A receptor [3]): 70 nM; h5-HT2A Rel. Eff. (5-HT2A receptor [3]): 56%; Ki (human 5-HT2B receptors): 12 nM; EC50 (5-HT2C receptor [4]): 14 nM; h5-HT2C Rel. Eff. (5-HT2C receptor [4]): 97%
